Assay results: PubChem BioAssay AID330 (DTP/NCI, 2004)
“And” between values parts separate entries of the source, which are not always exact repeats. Identical values can stand only once. Inconclusive results and toxic doses are left out. The calls were made as follows: active = survival T/C of 150% or more; inactive = T/C below 125% in these data.

Test system: P388 leukemia ip, CD2F1 mice, survival T/C
Experiment: NCI In Vivo Anticancer Drug Screen. Data for tumor model P388 Leukemia (intraperitoneal) in CD2F1 (CDF1) mice
Conditions: endpoint: median survival time, higher = longer survival
Procedure, shortened: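 Mice carrying the transplanted tumor received test compound or vehicle. Survival was recorded in each group, and the value is the treated-group measurement divided by that of the vehicle-treated control group.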

[1] = dose: 50.0 mg/kg/injection, schedule: Q01DX009 (ip), vehicle: saline with Tween-80
[2] = dose: 100.0 mg/kg/injection, schedule: Q01DX009 (ip), vehicle: saline with Tween-80
[3] = dose: 200.0 mg/kg/injection, schedule: Q01DX009 (ip), vehicle: saline with Tween-80
[4] = dose: 100.0 mg/kg/injection, schedule: Q04DX002 (ip), vehicle: saline with Tween-80
[5] = dose: 200.0 mg/kg/injection, schedule: Q04DX002 (ip), vehicle: saline with Tween-80
[6] = dose: 400.0 mg/kg/injection, schedule: Q04DX002 (ip), vehicle: saline with Tween-80
[7] = dose: 25.0 mg/kg/injection, schedule: Q01DX005 (ip), vehicle: Klucel (hydroxypropylcellulose) (HPC)
[8] = dose: 50.0 mg/kg/injection, schedule: Q01DX005 (ip), vehicle: Klucel (hydroxypropylcellulose) (HPC)
[9] = dose: 100.0 mg/kg/injection, schedule: Q01DX005 (ip), vehicle: Klucel (hydroxypropylcellulose) (HPC)
[10] = dose: 200.0 mg/kg/injection, schedule: Q01DX005 (ip), vehicle: Klucel (hydroxypropylcellulose) (HPC)
[11] = dose: 60.0 mg/kg/injection, schedule: Q01DX005 (ip), vehicle: Klucel (hydroxypropylcellulose) (HPC)
[12] = dose: 120.0 mg/kg/injection, schedule: Q01DX005 (ip), vehicle: Klucel (hydroxypropylcellulose) (HPC)
[13] = dose: 240.0 mg/kg/injection, schedule: Q01DX005 (ip), vehicle: Klucel (hydroxypropylcellulose) (HPC)

Measured: T/C

CSCCC(NC(=O)C(F)(F)F)C(=O)O (stereo not given)
inactive: [1] 106 % of control | [2] 94 % of control | [3] 94 % of control

O=C(/C(O)=C/c1ccccc1)c1ccccc1
inactive: [4] 93 % of control | [5] 92 % of control | [6] 92 % of control

COc1ccc(/C=N/SC(c2ccccc2)(c2ccccc2)c2ccccc2)cc1
inactive: [4] 111 % of control | [5] 99 % of control | [6] 92 % of control

CC(C)(C)c1ccc(N2CSC(=S)N(c3ccc(C(C)(C)C)cc3)C2)cc1
inactive: [1] 96 % of control | [2] 89 % of control | [3] 90 % of control

CC1(C)OC2(C)NS(=O)(=O)c3ccc(Cl)cc3N2C1=O (stereo not given)
inactive: [1] 106 % of control | [2] 100 % of control | [3] 98 % of control

NCCCCC(C(=O)NCC(=O)O)N(C(=O)OCc1ccccc1)C(=O)OCc1ccccc1 (stereo not given)
inactive: dose: 50.0 mg/kg/injection, schedule: Q01DX005 (ip), vehicle: saline with Tween-80 101 % of control | dose: 100.0 mg/kg/injection, schedule: Q01DX005 (ip), vehicle: saline with Tween-80 101 % of control | dose: 200.0 mg/kg/injection, schedule: Q01DX005 (ip), vehicle: saline with Tween-80 90 % of control

COc1cc(Br)cc(C(=O)N2CCc3ccccc32)c1OC
inactive: dose: 25.0 mg/kg/injection, schedule: Q01DX009 (ip), vehicle: other 99 % of control | dose: 50.0 mg/kg/injection, schedule: Q01DX009 (ip), vehicle: other 96 % of control | dose: 100.0 mg/kg/injection, schedule: Q01DX009 (ip), vehicle: other 96 % of control | dose: 200.0 mg/kg/injection, schedule: Q01DX009 (ip), vehicle: other 96 % of control | dose: 400.0 mg/kg/injection, schedule: Q01DX009 (ip), vehicle: other 87 % of control

CC(=NC1CCCCC1)Nc1ccc(NC(=O)c2ccc(C(=O)Nc3ccc(NC(C)=NC4CCCCC4)cc3)cc2)cc1
inactive: [7] 98 % of control | [8] 104 % of control | [9] 98 % of control | [10] 102 % of control

O=C(Nc1ccc(C2=NCCN2)cc1)c1cc2ccc(C3=NCCN3)cc2[nH]1
inactive: dose: 12.5 mg/kg/injection, schedule: Q04DX003 (ip), vehicle: saline 101 % of control | dose: 25.0 mg/kg/injection, schedule: Q04DX003 (ip), vehicle: saline 112 % of control | dose: 50.0 mg/kg/injection, schedule: Q04DX003 (ip), vehicle: saline 118 % of control

O=C1OCC2(C(=O)O)C(=O)OCC12 (stereo not given)
inactive: dose: 8.0 mg/kg/injection, schedule: Q01DX009 (ip), vehicle: saline with Tween-80 94 % of control | dose: 16.0 mg/kg/injection, schedule: Q01DX009 (ip), vehicle: saline with Tween-80 105 % of control and 108 % of control | dose: 32.0 mg/kg/injection, schedule: Q01DX009 (ip), vehicle: saline with Tween-80 107 % of control | dose: 64.0 mg/kg/injection, schedule: Q01DX009 (ip), vehicle: saline with Tween-80 100 % of control and 108 % of control | dose: 128.0 mg/kg/injection, schedule: Q01DX009 (ip), vehicle: saline with Tween-80 97 % of control

C=C(C[P+](c1ccccc1)(c1ccccc1)c1ccccc1)C(=O)OCC
inactive: dose: 3.12 mg/kg/injection, schedule: Q01DX001 (ip), vehicle: saline 111 % of control | dose: 6.25 mg/kg/injection, schedule: Q01DX001 (ip), vehicle: saline 109 % of control | dose: 12.5 mg/kg/injection, schedule: Q01DX001 (ip), vehicle: saline 113 % of control | dose: 12.5 mg/kg/injection, schedule: Q01DX001 (ip), vehicle: suspension in saline 117 % of control

Br[CH](Br)[Hg][c]1ccccc1
inactive: dose: 100.0 mg/kg/injection, schedule: Q01DX001 (ip), vehicle: Klucel (hydroxypropylcellulose) (HPC) 93 % of control | dose: 200.0 mg/kg/injection, schedule: Q01DX001 (ip), vehicle: Klucel (hydroxypropylcellulose) (HPC) 96 % of control

C[CH2][Sn]([CH2]C)([N]=C=S)[N]=C=S.c1ccc2nc(-c3ccc4ccccc4n3)ccc2c1
inactive: [11] 95 % of control | [12] 96 % of control | [13] 98 % of control

CCOC(=N)c1ccc(C(=N)OCC)cc1
inactive: dose: 60.0 mg/kg/injection, schedule: Q01DX005 (ip), vehicle: saline 97 % of control | dose: 120.0 mg/kg/injection, schedule: Q01DX005 (ip), vehicle: saline 100 % of control | dose: 240.0 mg/kg/injection, schedule: Q01DX005 (ip), vehicle: saline 104 % of control

CCCCCCOC(=O)c1ccccc1OP(=O)(N(C)C)N(C)C
inactive: dose: 50.0 mg/kg/injection, schedule: Q01DX005 (ip), vehicle: saline 98 % of control | dose: 100.0 mg/kg/injection, schedule: Q01DX005 (ip), vehicle: saline 101 % of control

CC(/C(=N/O)c1ccccc1)N1C(=O)c2ccccc2C1=O (stereo not given)
inactive: [11] 100 % of control | [12] 99 % of control | [13] 96 % of control

NC(CCCCNC(=S)S)C(=O)O.[Na+].[Zn+2] (stereo not given)
inactive: dose: 12.5 mg/kg/injection, schedule: Q01DX005 (ip), vehicle: Klucel (hydroxypropylcellulose) (HPC) 102 % of control | [7] 102 % of control | [8] 102 % of control and 107 % of control and 114 % of control | [9] 109 % of control and 120 % of control (2×)

COc1ccc(/C=N\N=C(/[O-])c2ccc(Cl)cc2)cc1.COc1ccc(/C=N\N=C(/[O-])c2ccc(Cl)cc2)cc1.[Co+2].[OH3+].[OH3+]
inactive: [4] 93 % of control | [5] 102 % of control | [6] 103 % of control

CC1=CC(=O)C2C1CC(=O)C1(C)C3C(=O)OC(C3C)C(O)C21 (stereo not given)
inactive: dose: 2.0 mg/kg/injection, schedule: Q01DX005 (ip), vehicle: Klucel (hydroxypropylcellulose) (HPC) 94 % of control | dose: 4.0 mg/kg/injection, schedule: Q01DX005 (ip), vehicle: Klucel (hydroxypropylcellulose) (HPC) 100 % of control | dose: 8.0 mg/kg/injection, schedule: Q01DX005 (ip), vehicle: Klucel (hydroxypropylcellulose) (HPC) 103 % of control | dose: 16.0 mg/kg/injection, schedule: Q01DX005 (ip), vehicle: Klucel (hydroxypropylcellulose) (HPC) 98 % of control | dose: 32.0 mg/kg/injection, schedule: Q01DX005 (ip), vehicle: Klucel (hydroxypropylcellulose) (HPC) 100 % of control

CN(C(=O)c1ccc(N)cc1)C1CCN(C2CCCCC2)C1 (stereo not given)
inactive: dose: 50.0 mg/kg/injection, schedule: Q01DX009 (ip), vehicle: Klucel (hydroxypropylcellulose) (HPC) 103 % of control | dose: 100.0 mg/kg/injection, schedule: Q01DX009 (ip), vehicle: Klucel (hydroxypropylcellulose) (HPC) 101 % of control

CC(C)(C)c1ccc(OCC(COc2ccc(C(C)(C)C)cc2)(COc2ccc(C(C)(C)C)cc2)COc2ccc(C(C)(C)C)cc2)cc1
inactive: dose: 7.5 mg/kg/injection, schedule: Q01DX009 (ip), vehicle: saline with Tween-80 98 % of control | dose: 15.0 mg/kg/injection, schedule: Q01DX009 (ip), vehicle: saline with Tween-80 95 % of control | dose: 30.0 mg/kg/injection, schedule: Q01DX009 (ip), vehicle: saline with Tween-80 93 % of control

O=C1OC(=O)N2CSCC12 (stereo not given)
inactive: [8] 101 % of control | [9] 96 % of control | [10] 92 % of control

CC1(C)N=C(N)N=C(N)N1c1cccc(CSc2ccccc2)c1
inactive: dose: 7.5 mg/kg/injection, schedule: Q01DX005 (ip), vehicle: Klucel (hydroxypropylcellulose) (HPC) 98 % of control | dose: 15.0 mg/kg/injection, schedule: Q01DX005 (ip), vehicle: Klucel (hydroxypropylcellulose) (HPC) 103 % of control | dose: 30.0 mg/kg/injection, schedule: Q01DX005 (ip), vehicle: Klucel (hydroxypropylcellulose) (HPC) 103 % of control
